According to publication PMC4153677, “Probing the Activity Modification Space of the Cysteine Peptidase Cathepsin K with Novel Allosteric Modifiers” (PLoS ONE, 2014):
Like-named read-outs stand apart in the source and are kept apart here.

Tests used:
[1] = Solubility in aqueous buffers; format: physicochemical; details: aqueous buffer, kinetic from dmso stock
Description: Recombinant human cathepsin K was prepared as described previously. Chemical probes were obtained from the U.S. NCI/DTP Open Chemical Repository or from ChemBridge (USA). All compounds were soluble in aqueous buffers at concentrations of at least 2 mM, except for compound 2, which was soluble up to a maximal concentration of 1 mM. Stock solutions of all compounds were prepared in DMSO. The fluorogenic substrate Z-FR↓AMC (benzyloxycarbonyl-Phe-Arg-7-amino-4-methylcoumarin) was from Bachem (Switzerland).

[2] = molecular target: T1, Recombinant human cathepsin K (Homo sapiens, UniProt P43235); assay: Collagenolytic assays (calf skin collagen, SDS-PAGE); format: biochemical; design: key to collagen: qualitative value: qualitative values of 1 and 0 were used to signify inhibition and lack thereof, respectively; qualitative values of 1 and 0 were used to signify inhibition and lack thereof, respectively; a value of -1 was used to describe the concentration-dependent roles of glycosaminoglycans
T1 construct: made in house
T1 sequence (P43235 115-329): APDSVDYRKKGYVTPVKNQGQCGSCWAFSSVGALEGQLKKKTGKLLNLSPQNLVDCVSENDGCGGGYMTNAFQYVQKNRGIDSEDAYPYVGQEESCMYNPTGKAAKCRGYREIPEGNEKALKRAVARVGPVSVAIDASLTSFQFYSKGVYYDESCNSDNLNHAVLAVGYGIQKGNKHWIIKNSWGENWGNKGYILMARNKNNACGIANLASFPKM
Description: The use of synthetic substrates is practical for the determination of the mechanisms of modification. […] Therefore, all modifiers were also tested with two macromolecular substrates, calf skin collagen and azocasein. The collagenolytic activity was tested quantitatively by following the fragmentation of the characteristic type I collagen pattern into smaller products on SDS-PAGE after incubation of the samples with cathepsin K in the presence and absence of modifiers.
Soluble calf skin collagen (Worthington Biochemical Corporation, USA) was diluted in 100 mM sodium acetate buffer pH 5.50 containing 1 mM EDTA and 5 mM DTT to a final concentration of 0.5 mg/ml. Experiments were started by addition of cathepsin K (final enzyme concentration 0.6 µM) to the reaction mixture containing collagen and increasing concentrations of modifier. All assays were performed at 28°C with shaking on an Eppendorf Thermomixer Comfort. Samples were incubated for 2 hours and the reactions then blocked by addition of E-64 to a final concentration of 1 µM. 10 µg of digested collagen were analyzed by SDS-PAGE on 8% polyacrylamide gels and protein bands visualized by Coomassie Brilliant Blue R-250 staining.

[3] = molecular target: T1, Recombinant human cathepsin K; assay: Kinetic measurements, hydrolysis of the fluorogenic substrate Z-FR↓AMC (general modifier mechanism); format: biochemical; design: key to α (coefficient, effect of modifier on the affinity for the substrate) / β (coefficient, effect of modifier on the catalytic rate): dimensionless coefficients multiplying KS (α) and kcat (β)
Description: All modifiers were tested for their effect on the hydrolysis of the low molecular mass synthetic substrate Z-FR↓AMC. Since all progress curves were linear from the beginning of the reaction, initial velocities were calculated from the slopes by linear regression. […] The basic mechanism considered for the analysis of the interactions was the general modifier mechanism shown in Figure 2, in which the effect of modifier is determined by the values of the coefficients α and β that multiply the kinetic parameters K S, K A (α) and k cat (β). In the thermodynamic box embodied in Figure 2, the reciprocal of the coefficient α represents the allosteric coupling constant that characterizes energy linkage between the modifier and the substrate, while a […] represents the effect exerted by the modifier on catalysis. The specific velocity plot was used for the primary screening of the kinetic behavior of the modifiers (Equation 2), as it allows an immediate judgment of the type of interaction and to gather preliminary estimates of the coefficients α and β, as well as of the dissociation constant of the modifier. Refinement was then performed by fitting the rate Equation 1 to data.
Figure 3 Kinetic mechanisms of the identified modifiers. All compounds were characterized by a combination of specific velocity plots (upper panels) and titration curves recorded at fixed substrate concentrations (lower panels). All experiments were performed at 25±1°C in 100 mM sodium acetate buffer pH 5.50 containing 1 mM EDTA and 2.5 mM DTT using the fluorogenic substrate Z-FR↓AMC and at a final enzyme concentration of 0.5 nM.
All kinetic measurements were performed in 100 mM sodium acetate buffer pH 5.50 containing 1 mM EDTA and 2.5 mM dithiothreitol (DTT) in single-use acrylic cuvettes (1×1 cm) thermostatted at 25±1°C with magnetic stirring. The hydrolysis of Z-FR↓AMC was followed fluorometrically at λex 383 nm and λem 455 nm. All tested modifiers were analyzed spectroscopically to determine their absorption properties under the conditions used in the assays. When necessary, appropriate corrections were made to the calculated reaction rates to take into account the inner filter effect.
The effects of the modifiers on enzymatic activity were analyzed with the general modifier mechanism which describes the interaction between enzyme (E), substrate (S) and modifier (A), as shown in Figure 2. Assuming that binding of A to E and ES is at quasi-equilibrium and that steady-state conditions are established in the fluxes around ES and ESA (i.e. the catalytic steps), the reaction rate for the mechanism in Figure 2 is defined by Equation 1: [drawing 2] (1) where v 0 is the reaction rate in the absence of modifier, K A is the equilibrium dissociation constant of the EA complex, α and β are dimensionless coefficients and σ = [S]/K m, approximated to [S]/K s. To determine the mechanism of interaction, plot the kinetic data and calculate preliminary values of the interaction parameters, the specific velocity plot was used. For this purpose, Equation 1 is rewritten as:
The plot of v 0/v A versus σ/(1+σ) produces straight lines with intersection points at v 0/v A = 1, regardless of the interaction mechanism. The parameters α, β and K A are determined by replotting the extrapolated values of the straight lines at σ/(1+σ) = 0 (a) and σ/(1+σ) = 1 (b) versus 1/[A] in the form: [drawing 4] (3) [drawing 5] (4)

[4] = molecular target: T1, Recombinant human cathepsin K; assay: Thermal stability of cathepsin K at pH 7.4 in the presence of modifiers; format: biochemical
Description: Cathepsin K was incubated at 37°C in 50 mM Hepes buffer pH 7.40 containing 1 mM EDTA and 5 mM DTT in the presence or absence of each modifier. The final enzyme concentration was 0.2 µM and final compounds concentrations were 2 mM, except compound 2, which was used at a concentration of 1 mM. All experiments were performed in Eppendorf Protein LoBind Tubes to minimize the adsorption of proteins on tube walls. Aliquots were withdrawn from the reaction mixtures at regular time intervals and their residual activity measured using the substrate Z-FR↓AMC (5 µM final concentration). Inactivation curves had exponential profiles that were fitted with the mathematical model for one-phase exponential decay to determine the half-life of the enzyme in each reaction mixture.

OC(c1cc(-c2ccc(C(F)(F)F)cc2)nc(C(F)(F)F)c1)C1CCCCN1 (stereo not shown) [Compound 2, Piperidin-2-yl-[2-(trifluoromethyl)-6-[4-(trifluoromethyl)phenyl]pyridin-4-yl] methanol]
solubility [1]: ≤ 1000 µM | Effect on degradation of calf skin collagen ([2]; SDS-PAGE, increasing concentrations of modifier): concentration-dependent inhibitory effect | collagen: qualitative value ([2]; activity modification matrix): 1 | IC50 ([2]; degradation of calf skin collagen, read-out: IC 50 (estimated)): ~500 µM | IC50 ([2]; substrate calf skin collagen 0.5 mg/ml, 0.6 µM cathepsin K, 2 hours 28°C, pH 5.50, estimated, read-out: IC 50): 500 µM | Z-FRAMC: geometric mean of residual activities (vA) ([3]; at 0.1×Km and 10×Km substrate, modifier 10×KA, calculated with Equation 1 from α and β of Table 3, unmodified enzyme = 1.00): 0.42 | β (coefficient, effect of modifier on the catalytic rate) ([3]; substrate Z-FR↓AMC, pH 5.50, 25°C, 0.5 nM enzyme): 0.74±0.13 | Kd ([3]; substrate Z-FR↓AMC, pH 5.50, 25°C, 0.5 nM enzyme, read-out: K A (equilibrium dissociation constant of the EA complex)): 150 ± 50 µM | stability: ln(sf), sf = ratio of half-lives in the presence and absence of modifier ([4]; 37 °C and pH 7.4): 0.79 | Increase of stability (half-life) of cathepsin K ([4]; pH 7.4, 37°C, versus enzyme only): about 2 fold
